From US20220315554A1, “COMPOUNDS COMPRISING A […] LIGAND AND USE THEREOF” (priority 2019, published 2022)
Numbered stars: 1 amine (or outer) side, 2 acyl side, 3 side chain; on linkers, the order of the positions; unused ones are H or OH. Bridge positions count the residues as written; N and C are the ends. Peptide text beside a SMILES is read from it. * marks the point of attachment. X3 = NC(=O)[C@H](CCCCNC(=O)CN1CCN(CC(=O)O)CCN(CC(=O)O)CCN(CC(=O)O)CC1)NC(=O)CCC(=O)NCCCOCCOCCOCCCN*; X6 = NC(=O)[C@H](CCCCNC(=O)CCCC[C@@H]1SC[C@@H]2NC(=O)N[C@@H]21)NC(=O)CCC(=O)NCCCOCCOCCOCCCN*; mXylylene = c1cc(C[*:1])cc(C[*:2])c1; Hexanoyl = CCCCCC(=O)*

Legend:
recombinant human PREP = target: T1, recombinant human PREP (Homo sapiens, UniProt P48147); assay: PREP protease activity assay; format: biochemical
T1 construct: purchased R&D systems 4308-SE
T1 sequence (P48147 1-710): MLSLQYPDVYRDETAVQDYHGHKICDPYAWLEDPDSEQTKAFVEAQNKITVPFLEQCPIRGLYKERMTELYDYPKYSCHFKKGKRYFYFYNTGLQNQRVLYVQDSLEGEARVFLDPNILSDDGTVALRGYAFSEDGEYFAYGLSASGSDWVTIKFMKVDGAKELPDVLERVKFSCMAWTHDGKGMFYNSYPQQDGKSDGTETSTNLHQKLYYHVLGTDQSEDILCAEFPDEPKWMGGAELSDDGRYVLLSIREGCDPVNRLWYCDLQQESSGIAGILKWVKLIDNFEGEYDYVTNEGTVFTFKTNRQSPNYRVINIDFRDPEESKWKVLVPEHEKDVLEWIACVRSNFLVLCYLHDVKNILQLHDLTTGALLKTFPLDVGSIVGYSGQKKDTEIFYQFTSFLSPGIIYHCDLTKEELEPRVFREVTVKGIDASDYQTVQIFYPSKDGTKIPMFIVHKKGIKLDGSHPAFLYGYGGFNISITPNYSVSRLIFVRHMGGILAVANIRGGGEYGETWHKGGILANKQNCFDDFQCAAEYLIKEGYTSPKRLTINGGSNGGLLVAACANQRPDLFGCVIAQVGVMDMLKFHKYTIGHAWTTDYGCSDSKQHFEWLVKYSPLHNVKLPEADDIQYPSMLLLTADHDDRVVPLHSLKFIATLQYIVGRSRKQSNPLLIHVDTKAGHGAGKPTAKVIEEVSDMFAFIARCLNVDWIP

Human recombinant FAP [1] = target: T2, Human recombinant FAP (Homo sapiens, UniProt Q12884); assay: FRET-based FAP protease activity assay; format: biochemical; parameters: purchased R&D systems 3715-SE
T2 sequence (Q12884 1-760): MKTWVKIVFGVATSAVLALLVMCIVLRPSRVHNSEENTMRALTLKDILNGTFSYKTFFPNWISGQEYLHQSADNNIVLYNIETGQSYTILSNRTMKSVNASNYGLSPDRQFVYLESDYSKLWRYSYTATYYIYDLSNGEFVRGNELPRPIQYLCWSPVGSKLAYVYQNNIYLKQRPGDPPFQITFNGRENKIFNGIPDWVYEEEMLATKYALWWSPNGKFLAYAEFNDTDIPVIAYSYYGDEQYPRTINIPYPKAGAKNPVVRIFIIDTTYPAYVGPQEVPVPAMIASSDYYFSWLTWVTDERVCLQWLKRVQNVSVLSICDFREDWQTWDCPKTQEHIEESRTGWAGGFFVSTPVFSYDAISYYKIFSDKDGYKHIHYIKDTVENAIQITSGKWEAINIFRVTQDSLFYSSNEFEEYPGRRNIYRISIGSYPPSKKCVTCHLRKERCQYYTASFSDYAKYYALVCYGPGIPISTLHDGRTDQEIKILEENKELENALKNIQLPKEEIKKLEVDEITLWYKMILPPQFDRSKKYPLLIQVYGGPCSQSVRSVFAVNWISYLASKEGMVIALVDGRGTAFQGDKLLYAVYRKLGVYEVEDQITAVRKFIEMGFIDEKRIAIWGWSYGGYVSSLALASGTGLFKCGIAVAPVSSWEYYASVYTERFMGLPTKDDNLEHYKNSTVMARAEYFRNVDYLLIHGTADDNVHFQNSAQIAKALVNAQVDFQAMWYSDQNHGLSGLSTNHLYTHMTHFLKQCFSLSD

[2] = target: T3, FAP-expressing human WI-38 fibroblasts (Homo sapiens, UniProt Q12884); assay: Competitive FACS binding assay
T3 construct: FAP-expressing human WI-38 fibroblasts (ECACC) were cultured in EMEM; host or cells: WI-38 human fibroblasts
T3 sequence (Q12884 1-760): T2 sequence (Q12884 1-760)
Description: Cells were analyzed in an Attune NxT flow cytometer. […]

Recombinant human DPP4 = target: T4, Recombinant human DPP4 (Homo sapiens, UniProt P27487); assay: DPP4 protease activity assay; format: biochemical
T4 construct: purchased R&D systems 9168-SE
T4 sequence (P27487 whole entry): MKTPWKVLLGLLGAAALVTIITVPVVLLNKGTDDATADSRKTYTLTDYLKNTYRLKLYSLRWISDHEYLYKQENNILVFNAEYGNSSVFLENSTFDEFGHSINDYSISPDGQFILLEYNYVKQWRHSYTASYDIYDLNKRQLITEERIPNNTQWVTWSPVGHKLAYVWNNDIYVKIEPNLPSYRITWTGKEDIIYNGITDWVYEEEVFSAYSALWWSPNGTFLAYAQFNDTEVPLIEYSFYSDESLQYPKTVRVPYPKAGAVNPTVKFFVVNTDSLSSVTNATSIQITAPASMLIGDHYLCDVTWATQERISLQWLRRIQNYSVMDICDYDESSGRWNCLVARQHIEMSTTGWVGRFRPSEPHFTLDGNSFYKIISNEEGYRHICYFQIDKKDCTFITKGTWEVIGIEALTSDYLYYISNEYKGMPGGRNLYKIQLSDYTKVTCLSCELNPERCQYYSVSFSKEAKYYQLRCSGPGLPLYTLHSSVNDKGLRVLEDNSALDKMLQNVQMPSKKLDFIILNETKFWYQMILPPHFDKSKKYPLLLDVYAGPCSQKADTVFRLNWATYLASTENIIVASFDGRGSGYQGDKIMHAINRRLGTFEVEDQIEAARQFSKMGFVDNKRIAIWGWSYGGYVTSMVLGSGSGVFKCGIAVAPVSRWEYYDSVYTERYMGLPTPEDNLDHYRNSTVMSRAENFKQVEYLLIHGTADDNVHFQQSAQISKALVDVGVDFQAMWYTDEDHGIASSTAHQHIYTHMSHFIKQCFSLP

Human recombinant FAP [3] = target: T2, Human recombinant FAP; assay: Surface plasmon resonance (Biacore) assay; format: binding
[4] = Plasma stability assay, mouse plasma; format: in vitro ADME; conditions: 4 h incubation, 37° C., read-out: % intact compound remaining after incubation, Mouse plasma
[5] = pIC50 Category (Activity), recombinant human FAP, FRET substrate, 37° C.
[6] = pIC50 Category (FACS), competition with 3 nM Cy5-labeled compound, WI-38 fibroblasts, 4° C., 1 hour

Row | Structure (SMILES) | IC50 (recombinant human PREP) [nM] | IC50 (Human recombinant FAP [1]; [5]) [nM] | IC50 [2, 6] [nM] | IC50 (Recombinant human DPP4) [nM] | Kd (Human recombinant FAP [3]) [nM] | remaining at 4 h, 9.8 µM [4] [%] | IC50 (Human recombinant FAP [1]; pIC50 (highest activity category), FAP activity assay) [nM] | IC50 ([2]; pIC50 (highest activity category), FACS binding) [nM]
1 | CSCC[C@H](N)C(=O)N[C@H]1CSCc2cccc(c2)CSC[C@@H](C(=O)N[C@@H](CC(=O)O)C(=O)N[C@@H](Cc2c[nH]cn2)C(=O)N[C@@H](Cc2ccccc2)C(=O)N[C@@H](CCCNC(=N)N)C(=O)N[C@@H](CC(=O)O)C(=O)NCCCOCCOCCOCCCNC(=O)CCC(=O)N[C@@H](CCCCNC(=O)CCCC[C@@H]2SC[C@@H]3NC(=O)N[C@@H]32)C(N)=O)NC(=O)[C@H](Cc2ccccc2)NC(=O)[C@H](CCC(=O)O)NC(=O)[C@H]([C@@H](C)O)NC(=O)[C@@H]2CCCN2C(=O)[C@@H]2CCCN2C1=O [3BP-2881, H-Met-[Cys(3MeBn)-Pro-Pro-Thr-Glu-Phe-Cys]-Asp-His-Phe-Arg-Asp-Ttds-Lys(Bio)-NH2] (H-MCPPTEFCDHFRD-X6; linker 2-8 via mXylylene) | > 1000 | < 10 | < 10 | > 1000 |  |  |  | 
2 | CCCCCC(=O)N[C@H]1CSCc2cccc(c2)CSC[C@@H](C(=O)N[C@@H](CC(=O)O)C(=O)N[C@@H](Cc2c[nH]cn2)C(=O)N[C@@H](Cc2ccccc2)C(=O)N[C@@H](CCCNC(=N)N)C(=O)N[C@@H](CC(=O)O)C(N)=O)NC(=O)[C@H](Cc2ccccc2)NC(=O)[C@H](CCC(=O)O)NC(=O)[C@H]([C@@H](C)O)NC(=O)[C@@H]2CCCN2C(=O)[C@@H]2CCCN2C1=O [3BP-2974, Hex-[Cys(3MeBn)-Pro-Pro-Thr-Glu-Phe-Cys]-Asp-His-Phe-Arg-Asp-NH2] (Hexanoyl-CPPTEFCDHFRD-NH2; linker 1-7 via mXylylene) |  | < 10 | < 10 |  | < 10 | 92 |  | 
3 | CSCC[C@H](NC(C)=O)C(=O)N[C@H]1CSCc2cccc(c2)CSC[C@@H](C(=O)N[C@@H](CC(=O)O)C(=O)N[C@@H](Cc2c[nH]cn2)C(=O)N[C@@H](Cc2ccccc2)C(=O)N[C@@H](CCCNC(=N)N)C(=O)N[C@@H](CC(=O)O)C(N)=O)NC(=O)[C@H](Cc2ccccc2)NC(=O)[C@H](CCC(=O)O)NC(=O)[C@H]([C@@H](C)O)NC(=O)[C@@H]2CCCN2C(=O)[C@@H]2CCCN2C1=O [3BP-2975, Ac-Met-[Cys(3MeBn)-Pro-Pro-Thr-Glu-Phe-Cys]-Asp-His-Phe-Arg-Asp-NH2] (Ac-MCPPTEFCDHFRD-NH2; linker 2-8 via mXylylene) |  | < 10 | < 10 |  | < 10 | 100 |  | 
4 | CCCCCC(=O)N[C@H]1CSCc2cccc(c2)CSC[C@@H](C(=O)N[C@@H](CC(=O)O)C(=O)N[C@@H](Cc2c[nH]cn2)C(=O)N[C@@H](Cc2ccccc2)C(=O)N[C@@H](CCCNC(=N)N)C(=O)N[C@@H](CC(=O)O)C(=O)NCCCOCCOCCOCCCNC(=O)CCC(=O)N[C@@H](CCCCNC(=O)CN2CCN(CC(=O)O)CCN(CC(=O)O)CCN(CC(=O)O)CC2)C(N)=O)NC(=O)[C@H](Cc2ccccc2)NC(=O)[C@H](CCC(=O)O)NC(=O)[C@H]([C@@H](C)O)NC(=O)[C@@H]2CCCN2C(=O)[C@@H]2CCCN2C1=O [3BP-3105, Hex-[Cys(3MeBn)-Pro-Pro-Thr-Glu-Phe-Cys]-Asp-His-Phe-Arg-Asp-Ttds-Lys(DOTA)-NH2] (Hexanoyl-CPPTEFCDHFRD-X3; linker 1-7 via mXylylene) | > 1000 | < 10 | < 10 | > 1000 | < 10 | 55 |  | 
5 | CSCC[C@H](NC(=O)CCC(=O)NCCCOCCOCCOCCOCCCNC(=O)CN1CCN(CC(=O)O)CCN(CC(=O)O)CCN(CC(=O)O)CC1)C(=O)N[C@H]1CSCc2cccc(c2)CSC[C@@H](C(=O)N[C@@H](CC(=O)O)C(=O)N[C@@H](Cc2c[nH]cn2)C(=O)N[C@@H](Cc2ccccc2)C(=O)N[C@@H](CCCNC(=N)N)C(=O)N[C@@H](CC(=O)O)C(N)=O)NC(=O)[C@H](Cc2ccccc2)NC(=O)[C@H](CCC(=O)O)NC(=O)[C@H]2NC(=O)[C@@H]3C(CCN3C(=O)[C@@H]3CCCN3C1=O)[C@H]2O [3BP-3168, DOTA-Ttds-Nle-[Cys(3MeBn)-Pro-Pro-Thr-Glu-Phe-Cys]-Asp-His-Phe-Arg-Asp-NH2] | > 1000 | < 10 | < 10 | > 1000 | < 10 | 100 | < 10 | < 10
6 | CC(=O)N[C@H]1CSCc2cccc(c2)CSC[C@@H](C(=O)N[C@@H](CC(=O)O)C(=O)N[C@@H](Cc2c[nH]cn2)C(=O)N[C@@H](Cc2ccccc2)C(=O)N[C@@H](CCCNC(=N)N)C(=O)N[C@@H](CC(=O)O)C(N)=O)NC(=O)[C@H](Cc2ccccc2)NC(=O)[C@H](CCC(=O)O)NC(=O)[C@H]([C@@H](C)O)NC(=O)[C@@H]2CCCN2C(=O)[C@@H]2CCCN2C1=O [3BP-3202, Ac-[Cys(3MeBn)-Pro-Pro-Thr-Glu-Phe-Cys]-Asp-His-Phe-Arg-Asp-NH2] (Ac-CPPTEFCDHFRD-NH2; linker 1-7 via mXylylene) |  | < 10 | < 10 |  | < 10 | 78 |  | 
7 | CCCCCC(=O)N[C@H]1CSCc2cccc(c2)CSC[C@@H](C(N)=O)NC(=O)[C@H](Cc2ccccc2)NC(=O)[C@H](CCC(=O)O)NC(=O)[C@H]([C@@H](C)O)NC(=O)[C@@H]2CCCN2C(=O)[C@@H]2CCCN2C1=O [3BP-3287, Hex-[Cys(3MeBn)-Pro-Pro-Thr-Glu-Phe-Cys]-NH2] (Hexanoyl-CPPTEFC-NH2; linker 1-7 via mXylylene) | > 1000 | 10 to 79.4 | 100 to 794 | > 1000 |  |  |  | 
8 | CCCCCC(=O)N[C@H]1CSCc2cccc(c2)CSC[C@@H](C(N)=O)NC(=O)[C@H](Cc2ccccc2)NC(=O)[C@H](CCC(N)=O)NC(=O)[C@H]([C@@H](C)O)NC(=O)[C@@H]2CCCN2C(=O)[C@@H]2CCCN2C1=O [3BP-3349, Hex-[Cys(3MeBn)-Pro-Pro-Thr-Gln-Phe-Cys]-NH2] | > 1000 | < 10 | 10 to 79.4 | > 1000 | < 10 |  |  | 
9 | CCCCCC(=O)N[C@H]1CSCc2cccc(c2)CSC[C@@H](C(=O)N[C@@H](CC(=O)O)C(N)=O)NC(=O)[C@H](Cc2ccccc2)NC(=O)[C@H](CCC(N)=O)NC(=O)[C@H]([C@@H](C)O)NC(=O)[C@@H]2CCCN2C(=O)[C@@H]2CCCN2C1=O [3BP-3476, Hex-[Cys(3MeBn)-Pro-Pro-Thr-Gln-Phe-Cys]-Asp-NH2] (Hexanoyl-CPPTQFCD-NH2; linker 1-7 via mXylylene) | > 1000 | < 10 | < 10 | > 1000 | < 10 |  |  | 
